One data set has as its system Lewis Lung Cancer. The data set can be described thus: Anticancer activity in Lewis lung carcinoma animal model. It counts as in vivo, C57 mice. Particulars: mice, oral, Indirubin 100 × 9, Meisoindigo 106 × 9 mg/kgxd.
Details of data set [1]: species or system dogs. Particulars: dog, in vivo. As to the method:
Two dogs were initially tested for sub-acute toxicity of Meisoindigo. They were orally given 10 mg/kg daily for 3 months.
Since no major toxicities were found during the initial study, an additional 3 dogs were tested by orally giving them a higher dose (20 mg/kg). Among them, one dog was given 20 mg/kg for 46 days, and another 2 dogs given for 2 months. […] However, all of those symptoms disappeared after the termination of the treatment of Meisoindigo.

The next data set can be described thus: Chronic toxicity in dogs. It is filed as in vivo. How it is done: On the basis of above initial tests, the sub-acute toxicities of Meisoindigo were further examined in dogs. Twelve dogs were randomly divided into 3 groups each having equal numbers of males and females, and orally given Meisoindigo at doses of 0, 5, and 10 mg/kg daily, respectively, for 6 months. […] All parameters tested, in all animals, including controls fluctuated within normal ranges.
Twenty-four hours after the termination of Meisoindigo, half of the animal of each group were sacrificed, and dissected for pathological examination.

For data set [2], the system named is TA97, TA98, TA100 and TA102. The experiment in a line: Reverse mutation, Ames test. It is filed as cell-based, salmonella typhimurium. Particulars: +S9 and −S9, Meisoindigo 2, 20, 50, 100 and 200 μg/dish. As to the method:
Meisoindigo at concentrations of 2, 20, 50, 100 and 200 μg/dish (10 cm), metabolically activated (+S9) and inactivated (−S9), were tested in strains of TA97, TA98, TA100 and TA102 (amino acid deficit salmonella typhimurium) respectively. Daunomycin, 2-aminofluorene (2AF), methylmethanesulfonate (MMS), 2,7-2AF, and 2-hydroxy-anthraquinone were used as positive controls.
In general terms: In the Ames test, an excess of revertant colonies over the control signals mutagenicity.

Another data set deals with cdk2. The experiment in a line: cdk2 activity immuno-precipitated from treated LNCaP cells. It counts as cell-based, Human. Particulars: 24 hours incubation with LNCaP cells. How it is done: (§1) Assay for cyclin dependent kinase activity: HUVEC and LNCaP cells were cultured in EMB (endothelial cell basal medium) and RPMI 1640 containing 10% FBS, respectively. The cells grown exponentially were exposed to indicated concentrations of meisoindigo or NATURA for 24 hr. The cells were harvested, washed, and total proteins extracted as described previously. One hundred μg of the proteins were immuno-precipitated using antibodies against cdk2, cdk4/6, PKC, ERK2 or cyclin D1 overnight at 4° C. in the presence of a cocktail of protease inhibitors. The immuno-precipitates were washed 4 times with protein extraction buffer and once with kinase assay buffer, and reacted with 75 μg/ml histone H1 in the presence of [γ-^32P]-ATP (2.5 μCi/10 μM). The phosphorylated histone H1 (represent cdk activity) was measured by scintillation counting or by SDS-polyacrylaimde gel electrophoresis. The direct inhibitory effects of Meisoindigo and NATURA were also measured by reaction of immuno-purified specific enzyme from untreated cells directly with the Meisoindigo or NATURA.
LNCaP cells grown exponentially were exposed to different concentrations of NATURA for 24 hrs. […] The upper panels (A & B) are imagines of the films from SDS-PAGE, and lower panels represent the density measured by an Imagine Densitometer from the same films (expressed as percent of control).

The target in data set [3] is T1, immuno-purified cdk2 from LNCaP cells (Homo sapiens, UniProt P24941).
T1 construct: Two hundred mg of total protein extracts were immuno-precipitated with cdk2 antibody overnight at 4° C
The experiment in a line: Direct inhibition of immuno-purified cdk2 activity in vitro. It counts as biochemical. How it is done:
as §1
When immuno-purified cdk2 from LNCaP cells was reacted with histone H1 in the presence of different concentrations of NATURA-β and γ-[^32P]-ATP (2.5 μCi/[…]), the enzyme activity was decreased in a concentration-dependent manner.
Two hundred mg of total protein extracts were immuno-precipitated with cdk2 antibody overnight at 4° C. After 4 washes with PBSTDS, and once with kinase assay buffer, the immuno-purified enzyme was then reacted for 10 min with 10 mg of histone H1 in the presence of different concentrations of NATURA or 50 mM of genistein (as a positive control) and γ-[^32P]-ATP (2.5 mCi/10 mM). The phosphorylated histone H1 (reflecting cdk2 activity) was detected either by SDS-PAGE (upper panel), or radioactive scintillation counting (lower panel, after eliminating free γ-[^32P]-ATP).

A further data set concerns protein kinase C (PKC). The data set can be described thus: PKC activity from treated LNCaP cells. It counts as cell-based, Human. Particulars: as high as 15 μM, 24 hrs. As to the method:
as §1, with “The immuno-precipitates were washed 4 times with protein extraction buffer and once with kinase assay buffer, and reacted with 75 μg/ml histone H1 in the presence of [γ-^32P]-ATP (2.5 μCi/10 μM).” left out, “NATURA. […]” for “NATURA.”
(§2) LNCaP cells at exponential growth phase were exposed to different concentrations of NATURA (panel A & B) for 24 hrs, or to PD98059 (panel C) for 15 min. […] Upper panels are the imagines of x-ray films from SDS-PAGE, and lower panels represent the densities of each band from the films determined by an Imagine Densitometer from the same films (expressed as the percent of control).

The subject of data set [4] is extracellular signal-regulated protein kinase 2 (ERK2). The experiment in a line: ERK2 activity from treated LNCaP cells. It counts as cell-based, Human. Particulars: as high as 15 μM, 24 hrs. How it is done:
as §1, with “The immuno-precipitates were washed 4 times with protein extraction buffer and once with kinase assay buffer, and reacted with 75 μg/ml histone H1 in the presence of [γ-^32P]-ATP (2.5 μCi/10 μM).” left out, “NATURA. […]” for “NATURA.”
as §2

The next data set in a line: Solubility description. It is filed as physicochemical.
Setting [5] is: oral, 5 and 10 mg/kg daily for 6 months.

Where two headings read alike, the source gives them in different places.

Protocol for Lewis Lung Cancer: Briefly, C57 mice, body weight between 18 to 22 grams, and rat, body weight between 50 to 55 grams, were randomly divided into several groups, ten of each, respectively. Approximately 2×10^6 of Lewis cancer cells or Walker sarcoma cells were transplanted into mice or rat. […] The animals in the control group were given 0.1 ml saline (drug vehicle, negative control) for the same periods of time as treated group. The animals at end of the treatment were sacrificed and tumors were removed and weighed.

For `CN1C(=O)/C(=C2/C(=O)Nc3ccccc32)c2ccccc21` [Meisoindigo], in the data set on Lewis Lung Cancer, the “Inhibition (%)” value was 48.6 ± 4.1% and the “Tumor Size X ± SD” value is reported as 1.80 ± 0.15. Moreover, in data set [1], the histochemical examinations result was “cellular edema, fatty degeneration, and scatter hyperplasia inflammation in liver tissues”. Further, in [1] (po, 10 mg/kg), the “biochemical changes of blood, liver, and kidney” value is listed as “No biochemical changes”; the clinical observations entry is reported as “Minor gastro intestinal irritations were observed occasionally”. Moreover, in [1] (po, 20 mg/kg), the clinical observations entry is “intestinal irritations at various degrees” and the tested parameters entry was “No abnormalities”. In addition, in “Chronic toxicity in dogs” (24 hours after termination of 6 months dosing), the “pathological examination of heart, liver, lung, kidney, stomach, gastro intestine, testis, ovary, lymph node” value is on record as “No abnormalities”. In addition, in the data set “Chronic toxicity in dogs” (setting [5]), the clinical observations entry is listed as “minor gastro-intestinal irritations”; the “hemogram, functions of liver (SGPT), kidney (BUN) and heart (ECG) vs control” value is on record as “No significant differences”. In data set [2], the “reverse mutations (Ames test)” value is “No induction of reverse mutations”.

Regarding `CC(=O)OC1COC(N2C(=O)/C(=C3/C(=O)Nc4ccccc43)c3ccccc32)C(OC(C)=O)C1OC(C)=O` [NATURA, 1-(β-D-O-Triacetyl-xylopyranosyl)-isoindigo], in the data set with cdk2 (5.0 μM), the “inhibition of cdk2 enzyme activity” value is “approximately 46%”. The “inhibition of cdk2 enzyme activity” value in the data set with cdk2 (15 μM) was around 92%. For the same compound, the inhibition at 10 µM in data set [3] (10 μM compound, ATP concentration as high as 100 μM, read-out: inhibitory effect on immuno-purified cdk2, ATP competing assay) is above 50%. Moreover, the IC50 (as a rule, the point on the concentration scale where inhibition reaches its midpoint) in data set [3] (immuno-purified cdk2, histone H1, γ-[32P]-ATP 2.5 μCi/20 μM) turned out to be 1.6 ± 0.2 µM. The “effect on PKC activity” value with protein kinase C (PKC) is “No inhibitory effect”. Further, the “effect on ERK2 activity” value in data set [4] was “No inhibitory effect”. In addition, in “Solubility description”, the “solubility in dimethyl sulfoxide (DMSO)” value is listed as “soluble”; the “solubility in ethanol, acetone, chloroform” value is given as “slightly dissolves”; the solubility in water result was “rarely dissolves”.

These data come from patent US6933315B2, “Derivatives of isoindigo, indigo and indirubin and methods of treating cancer” (priority 2001, dated 2005).
